Earlier results, collected in patent publication US20170027865A1, “Dry Pharmaceutical Compositions for Topical Delivery of Oral Medications, Nasal Delivery and to Treat Ear Disorders” (CMPD LICENSING LLC, priority 2013, published 2017).

Tests used:
Chlamydia psittaci = details: Chlamydia psittaci; Gram: n/a
Bacteroides fragilis = details: Gram: anaer
Chlamydia trachomatis = details: Gram: n/a
Shigella flexneri = details: Gram: neg
Haemophilus ducreyi = details: Gram: neg
Neisseria meningitidis = details: Gram: neg
Enterococcus faecium = details: Gram: pos
Escherichia coli = details: Gram: neg
Bordetella pertussis = details: Gram: neg
Citrobacter freundii = details: Gram: neg
Neisseria gonorrhoeae = details: Gram: neg
Proteus vulgaris = details: Gram: neg
Enterobacter aerogenes = details: Gram: neg
Enterobacter sakazakii = details: Gram: neg
Klebsiella pneumoniae = details: Gram: neg
Proteus mirabilis = details: Gram: neg
Shigella boydii = details: Gram: neg
[1] = tested on: Acinetobacter calcoaceticus; details: Gram: neg
Acinetobacter baumannii = details: Gram: neg
Clostridium perfringens = details: Clostridium perfringens; Gram: anaer
Moraxella catarrhalis = details: Gram: neg
Acinetobacter lwoffii = details: Gram: neg
[2] = tested on: Staphylococcus aureus (MSSA); details: Gram: pos
Clostridium difficile = details: Gram: anaer
[3] = tested on: Methicillin Resistant Staph aureus (MRSA); details: Gram: pos
Streptococcus pyogenes = details: Gram: pos
Corynebacterium jeikeium = details: Gram: pos
Peptostreptococcus = details: Gram: pos
Haemophilus influenzae = details: Gram: neg
Diphtheroids = details: Gram: pos
Serratia marcescens = details: Gram: neg
Enterobacter cloacae = details: Gram: neg
Klebsiella oxytoca = details: Gram: neg
[4] = tested on: Staphylococcus epidermidis; details: Gram: pos
Legionella pneumophila = details: Legionella pneumophila; Gram: neg
Streptococcus agalactiae = details: Gram: pos
Citrobacter diversus = details: Gram: neg
Vibrio cholerae = details: Gram: neg
Mycoplasma pneumoniae = details: Gram: n/a
[5] = tested on: Viridans group streptococci; details: Gram: pos
Pseudomonas fluorescens = details: Gram: neg
[6] = tested on: Corynebacterium urealyticum; details: Gram: pos
Campylobacter jejuni = details: Gram: neg
Streptococcus pneumoniae = details: Gram: pos
Pseudomonas aeruginosa = details: Gram: neg
Shigella dysenteriae = details: Gram: neg
Shigella sonnei = details: Gram: neg
Yersinia pestis = details: Yersinia pestis; Gram: neg
Chlamydia pneumoniae = details: Gram: n/a
[7] = tested on: Klebsiella (Calymmatobacterium) granulomatis; details: Gram: neg
Enterococcus faecalis = details: Gram: pos
Rickettsiae = details: Rickettsiae; Gram: neg
Providencia rettgeri = details: Gram: neg
Providencia stuartii = details: Gram: neg
Brucella species = details: Brucella species; Gram: neg
Bartonella bacilliformis = details: Gram: neg
Francisella tularensis = details: Francisella tularensis; Gram: neg
Morganella morganii = details: Gram: neg
[8] = tested on: Haemophilus parainfluenzae; details: Gram: neg

Measured: Expected coverage

NC[C@H]1O[C@H](O[C@H]2[C@H](O)[C@@H](O[C@H]3O[C@H](CO)[C@@H](O)[C@H](N)[C@H]3O)[C@H](N)C[C@@H]2N)[C@H](N)C[C@@H]1O [Tobramycin, tobramycin]
yes: Shigella flexneri | Haemophilus ducreyi | Escherichia coli | Citrobacter freundii | Proteus vulgaris | Enterobacter aerogenes | Enterobacter sakazakii | Klebsiella pneumoniae | Proteus mirabilis | Shigella boydii | Moraxella catarrhalis | Haemophilus influenzae | Serratia marcescens | Enterobacter cloacae | Klebsiella oxytoca | Citrobacter diversus | Pseudomonas fluorescens | Campylobacter jejuni | Pseudomonas aeruginosa | Shigella dysenteriae | Shigella sonnei | Yersinia pestis | [7]
no: Chlamydia psittaci | Bacteroides fragilis | Chlamydia trachomatis | Neisseria meningitidis | Enterococcus faecium | Bordetella pertussis | Neisseria gonorrhoeae | [1] | Acinetobacter baumannii | Clostridium perfringens | Acinetobacter lwoffii | [2] | Clostridium difficile | [3] | Streptococcus pyogenes | Corynebacterium jeikeium | Peptostreptococcus | Diphtheroids | [4] | Legionella pneumophila | Streptococcus agalactiae | Vibrio cholerae | Mycoplasma pneumoniae | [5] | [6] | Streptococcus pneumoniae | Chlamydia pneumoniae | Enterococcus faecalis

C[C@@H]1[C@H](O)[C@@H](C)/C=C/C=C/CC/C=C/C=C/C=C/C=C/C(O[C@H]2O[C@H](C)[C@@H](O)[C@H](N)[C@@H]2O)CC2O[C@](O)(CC(O)C(O)CCC(O)CC(O)CC(O)CC(=O)O[C@H]1C)CC(O)C2C(=O)O (some centres unmarked) [Nystatin, nystatin]
yes: Candida species

CC[C@H]1OC(=O)[C@H](C)[C@@H](O[C@H]2C[C@@](C)(OC)[C@@H](O)[C@H](C)O2)[C@H](C)[C@@H](O[C@@H]2O[C@H](C)C[C@H](N(C)C)[C@H]2O)[C@](C)(O)C[C@@H](C)CN(C)[C@H](C)[C@@H](O)[C@]1(C)O [Azithromycin, azithromycin]
no: Bacteroides fragilis | Enterococcus faecium | Escherichia coli | Citrobacter freundii | Proteus vulgaris | Enterobacter aerogenes | Enterobacter sakazakii | Klebsiella pneumoniae | Proteus mirabilis | Providencia rettgeri | [1] | Acinetobacter baumannii | Clostridium perfringens | Acinetobacter lwoffii | Clostridium difficile | Providencia stuartii | Brucella species | [3] | Corynebacterium jeikeium | Francisella tularensis | Serratia marcescens | Enterobacter cloacae | Klebsiella oxytoca | Citrobacter diversus | Pseudomonas fluorescens | Pseudomonas aeruginosa | [7] | Enterococcus faecalis | Morganella morganii
yes: Chlamydia psittaci | Chlamydia trachomatis | Rickettsiae | Neisseria meningitidis | Bordetella pertussis | Moraxella catarrhalis | [2] | Streptococcus pyogenes | Haemophilus influenzae | Bartonella bacilliformis | [4] | Legionella pneumophila | Streptococcus agalactiae | Vibrio cholerae | Mycoplasma pneumoniae | Campylobacter jejuni | Streptococcus pneumoniae | Chlamydia pneumoniae

colistimethate
no: Chlamydia psittaci | Bacteroides fragilis | Chlamydia trachomatis | Neisseria meningitidis | Enterococcus faecium | Bordetella pertussis | [8] | Neisseria gonorrhoeae | Proteus vulgaris | Proteus mirabilis | Providencia rettgeri | Moraxella catarrhalis | [2] | Clostridium difficile | Providencia stuartii | Brucella species | [3] | Streptococcus pyogenes | Corynebacterium jeikeium | Peptostreptococcus | Diphtheroids | Serratia marcescens | [4] | Legionella pneumophila | Streptococcus agalactiae | Vibrio cholerae | Mycoplasma pneumoniae | [5] | [6] | Streptococcus pneumoniae | Chlamydia pneumoniae | Enterococcus faecalis
yes: Escherichia coli | Enterobacter aerogenes | Enterobacter sakazakii | Klebsiella pneumoniae | Enterobacter cloacae | Klebsiella oxytoca | Pseudomonas fluorescens | Pseudomonas aeruginosa | [7]
